Experimental data taken from PubChem BioAssay (NCI).
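These data come from cells grown in 96-well plates and exposed to compound for 48 hours at five concentrations. At the GI50, growth is halved. TGI is the concentration that stops growth completely.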

What was measured:
Assay in all cases: NCI anticancer screen, dose series, 48 h
RXF 393 renal = tested on: RXF 393 renal
T-47D breast = tested on: T-47D breast
ACHN renal = tested on: ACHN renal
OVCAR-5 ovarian = tested on: OVCAR-5 ovarian
HOP-92 NSCLC = tested on: HOP-92 NSCLC
CAKI-1 renal = tested on: CAKI-1 renal
SK-MEL-28 melanoma = tested on: SK-MEL-28 melanoma
KM12 colon = tested on: KM12 colon
UO-31 renal = tested on: UO-31 renal
NCI-H460 lung = tested on: NCI-H460 lung
SF-539 CNS = tested on: SF-539 CNS
NCI-H522 lung = tested on: NCI-H522 lung
HCC-2998 colon = tested on: HCC-2998 colon
A549 NSCLC = tested on: A549 NSCLC
SF-295 CNS = tested on: SF-295 CNS
SNB-75 CNS = tested on: SNB-75 CNS
HCT-15 colon = tested on: HCT-15 colon
HOP-62 NSCLC = tested on: HOP-62 NSCLC
RPMI-8226 leukemia = tested on: RPMI-8226 leukemia
U251 CNS = tested on: U251 CNS
HL-60(TB) leukemia = tested on: HL-60(TB) leukemia
MCF7 breast = tested on: MCF7 breast
OVCAR-3 ovarian = tested on: OVCAR-3 ovarian
OVCAR-8 ovarian = tested on: OVCAR-8 ovarian
IGROV1 ovarian = tested on: IGROV1 ovarian
DU-145 prostate = tested on: DU-145 prostate
SNB-19 CNS = tested on: SNB-19 CNS
UACC-257 melanoma = tested on: UACC-257 melanoma
SN12C renal = tested on: SN12C renal

`C=C(C)[C@@H]1CC[C@]2(C(N)=O)CC[C@]3(C)[C@H](CC[C@@H]4[C@@]5(C)C/C(=C/c6cccnc6)C(=O)C(C)(C)[C@@H]5CC[C@]43C)[C@@H]12` was tested, and the GI50 (RXF 393 renal) was 3.41 µM, the TGI (RXF 393 renal) was 16.4 µM and the GI50 (T-47D breast) was 3.99 µM. For the same molecule, the TGI (T-47D breast) was over 100 µM, the GI50 (ACHN renal) was 4.96 µM and the TGI (ACHN renal) was over 100 µM. For the same molecule, the GI50 (OVCAR-5 ovarian) was 12.7 µM, the TGI (OVCAR-5 ovarian) was 39.7 µM and the GI50 (HOP-92 NSCLC) was 3.21 µM. It also gave a TGI (HOP-92 NSCLC) of over 100 µM, a GI50 (CAKI-1 renal) of 2.56 µM and a TGI (CAKI-1 renal) of 21.2 µM. For the same molecule, the GI50 (SK-MEL-28 melanoma) was 8.81 µM, the TGI (SK-MEL-28 melanoma) was 33.2 µM and the GI50 (KM12 colon) was 4.67 µM. It also gave a TGI (KM12 colon) of 64.1 µM, a GI50 (UO-31 renal) of 3.08 µM and a TGI (UO-31 renal) of over 100 µM. For the same molecule, the GI50 (NCI-H460 lung) was 8.32 µM, the TGI (NCI-H460 lung) was 25.1 µM and the GI50 (SF-539 CNS) was 10.9 µM. For the same molecule, the TGI (SF-539 CNS) was 33.3 µM, the GI50 (NCI-H522 lung) was 6.77 µM and the TGI (NCI-H522 lung) was 63 µM. The GI50 (HCC-2998 colon) was 9.04 µM, the TGI (HCC-2998 colon) was over 100 µM and the GI50 (A549 NSCLC) was 3.84 µM. It also gave a TGI (A549 NSCLC) of over 100 µM, a GI50 (SF-295 CNS) of 3.84 µM and a TGI (SF-295 CNS) of 42.3 µM. It also gave a GI50 (SNB-75 CNS) of 8.63 µM, a TGI (SNB-75 CNS) of over 100 µM and a GI50 (HCT-15 colon) of 4.4 µM. It also gave a TGI (HCT-15 colon) of over 100 µM, a GI50 (HOP-62 NSCLC) of 12.4 µM and a TGI (HOP-62 NSCLC) of over 100 µM. For the same molecule, the GI50 (RPMI-8226 leukemia) was 2.44 µM, the TGI (RPMI-8226 leukemia) was 22.1 µM and the GI50 (U251 CNS) was 7.3 µM. For the same molecule, the TGI (U251 CNS) was 47.2 µM, the GI50 (HL-60(TB) leukemia) was 3.15 µM and the TGI (HL-60(TB) leukemia) was 13.9 µM. For the same molecule, the GI50 (MCF7 breast) was 3.49 µM, the TGI (MCF7 breast) was over 100 µM and the GI50 (OVCAR-3 ovarian) was 5.91 µM. It also gave a TGI (OVCAR-3 ovarian) of 43.8 µM, a GI50 (OVCAR-8 ovarian) of 9.96 µM and a TGI (OVCAR-8 ovarian) of over 100 µM. The GI50 (IGROV1 ovarian) was 14 µM, the TGI (IGROV1 ovarian) was over 100 µM and the GI50 (DU-145 prostate) was 8.36 µM. The TGI (DU-145 prostate) was over 100 µM, the GI50 (SNB-19 CNS) was 9.22 µM and the TGI (SNB-19 CNS) was over 100 µM. It also gave a GI50 (UACC-257 melanoma) of 7.2 µM, a TGI (UACC-257 melanoma) of over 100 µM and a GI50 (SN12C renal) of 5.88 µM. For the same molecule, the TGI (SN12C renal) was over 100 µM.
